Our source for the solubility in chloroform, solubility in dichloromethane and solubility values is EP2138545B1, “USE OF PORPHYRAZINE DERIVATIVE AS SEMICONDUCTOR” (Hiroshima University, priority 2007, dated 2008).

≈ marks a conversion by molar mass, not a printed value. Where two headings read alike, the source gives them in different places. A value given as a limit tells only on which side of the number the result lay.

The data set in a line: Measurement of solubility in chloroform and in dichloromethane (solvent added by 0.1 mL until the whole amount dissolved). The settings on record: for solubility: organic solvent or mixture, thermodynamic from solid. Format: physicochemical. The method, then:
Respective compounds indicated by "6" and "7" were subjected to measurements of solubility in chloroform and in dichloromethane. In the measurements, approximately 3mg of a compound was prepared in advance by a precise weighing. Then, a solvent was added by 0.1mL to the compound and thereafter stirred or subjected to ultrasonic agitation. The solubility (mg/mL) was determined from an amount of the solvent used in dissolving a whole amount of the compound.

As for `CCCCCCc1cc2c(s1)-c1nc-2nc2[nH]c(nc3nc(nc4[nH]c(n1)c1cc(CCCCCC)sc41)-c1cc(CCCCCC)sc1-3)c1cc(CCCCCC)sc21` [compound 6, Tetra(hexylthieno)porphyrazine], the solubility in chloroform (solvent chloroform) is 29000 µg/mL (≈ 33100 µM).
In turn, `CCCCCCc1cc2c(s1)C1=NC2=Nc2c3sc(CCCCCC)cc3c3[n]2[Cu][n]2c(c4cc(CCCCCC)sc4c2=NC2=NC(=N3)c3sc(CCCCCC)cc32)=N1` [compound 7, Copper (II) complex] gave a solubility in chloroform (solvent chloroform) of 11000 µg/mL. For the setting “solvent dichloromethane”, the solubility in dichloromethane worked out at 10000 µg/mL.
On to `c1cc2c(s1)-c1nc-2nc2[nH]c(nc3nc(nc4[nH]c(n1)c1ccsc41)-c1ccsc1-3)c1ccsc21` [unsubstituted phthalocyanine derivative, reference compound], for which the solubility is, setting by setting: (solvent chloroform, read-out: solubility in chloroform) under 20 µg/mL; (solvent dichloromethane, read-out: solubility in dichloromethane) under 20 µg/mL.

Broadly, the solubility is the concentration that dissolves in the medium under given conditions.
